Source: patent US7141533B2, “Hetaryl-substituted heterocycles” (Bayer CropScience AG, priority 2000, dated 2006)

Experiments:
[1] = system: greenhouse red spider mite (Tetranychus urticae); experiment: Tetranychus test (OP-resistant/dip treatment); format: in vivo; conditions: bean plants dipped, OP-resistant
Experimental: [table] To produce a suitable preparation of active compound, 1 part by weight of active compound is mixed with the stated amounts of solvent and emulsifier, and the concentrate is diluted with emulsifier-containing water to the desired concentration. Bean plants (Phaseolus vulgaris) which are heavily infested by all stages of the greenhouse red spider mite (Tetranychus urticae) are dipped into a preparation of active compound of the desired concentration. After the desired period of time, the effect in % is determined. 100% means that all spider mites have been killed. 0% means that none of the spider mites have been killed.

[2] = system: caterpillars of the army worm (Spodoptera frugiperda); experiment: Spodoptera frugiperda test; format: in vivo; conditions: cabbage leaves dipped
Experimental: (§1) [table] To produce a suitable preparation of active compound, 1 part by weight of active compound is mixed with the stated amounts of solvent and emulsifier, and the concentrate is diluted with emulsifier-containing water to the desired concentration. Cabbage leaves (Brassica oleracea) are treated by being dipped into the preparation of active compound of the desired concentration and are populated with caterpillars of the army worm (Spodoptera frugiperda) while the leaves are still moist. After the desired period of time, the kill in % is determined. 100% means that all caterpillars have been killed; 0% means that none of the caterpillars have been killed.

Amaranthus = experiment: Post-emergence test; format: in vivo; conditions: 250 g ai/ha, after three weeks
Experimental: (§2) [table] To produce a suitable preparation of active compound, 1 part by weight of active compound is mixed with the stated amount of solvent, the stated amount of emulsifier is added and the concentrate is diluted with water to the desired concentration. Test plants of a height of 5 to 15 cm are sprayed with the preparation of active compound such that the particular amounts of active compound desired are applied per unit area. The concentration of the spray liquor is chosen such that the particular amounts of active compound desired are applied in 1000 1 of water/ha. After three weeks, the degree of damage to the plants is rated in % damage in comparison to the development of the untreated control. [table]

Echinochloa = experiment: Post-emergence test; format: in vivo; conditions: after three weeks
Experimental: as §2

Alopecurus [3] = experiment: Post-emergence test; format: in vivo; conditions: after three weeks
Experimental: as §2

[4] = system: peach aphid (Myzus persicae); experiment: Myzus test; format: in vivo; conditions: cabbage leaves dipped
Experimental: as §1, with “oleracea) which are heavily infested by the peach aphid (Myzus persicae)” for “oleracea)”, “concentration.” for “concentration and are populated with caterpillars of the army worm (Spodoptera frugiperda) while the leaves are still moist.”, “aphids” for “caterpillars”

[5] = system: larvae of the mustard beetle (Phaedon cochleariae); experiment: Phaedon larvae test; format: in vivo; conditions: cabbage leaves dipped
Experimental: as §1, with “with the larvae” for “with caterpillars”, “the mustard beetle (Phaedon cochleariae)” for “the army worm (Spodoptera frugiperda)”, “all beetle larvae” for “all caterpillars”, “the beetle larvae” for “the caterpillars”

sugar beet [6] = experiment: Post-emergence test; format: in vivo; conditions: after three weeks
Experimental: as §2

Digitaria = experiment: Post-emergence test; format: in vivo; conditions: after three weeks
Experimental: as §2

Avena fatua [7] = experiment: Post-emergence test; format: in vivo; conditions: after three weeks
Experimental: as §2

Setaria [8] = experiment: Post-emergence test; format: in vivo; conditions: 250 g ai/ha, after three weeks
Experimental: as §2

[9] = logP (HPLC; acetonitrile); format: physicochemical; conditions: for logP (pH2): pH 2
From the text: Yield: 2.4 g ( ? 41.62% of theory), logP (acidic) 4.54 (HPLC; acetonitrile).

sugar beet [10] = experiment: Pre-emergence test; format: in vivo; conditions: after three weeks
Experimental: (§3) [table] To produce a suitable preparation of active compound, 1 part by weight of active compound is mixed with the stated amount of solvent, the stated amount of emulsifier is added and the concentrate is diluted with water to the desired concentration. Seeds of the test plants are sown in normal soil. After about 24 hours, the soil is sprayed with the preparation of active compound such that the particular amounts of active compound desired are applied per unit area. The concentration of the spray liquor is chosen such that the particular amounts of active compound desired are applied in 1000 1 of water/ha. After three weeks, the degree of damage to the plants is rated in % damage in comparison to the development of the untreated control. [table]

Matricaria = experiment: Pre-emergence test; format: in vivo; conditions: 125 g ai/ha, after three weeks
Experimental: as §3

Setaria [11] = experiment: Pre-emergence test; format: in vivo; conditions: after three weeks
Experimental: as §3

oilseed rape [12] = experiment: Pre-emergence test; format: in vivo; conditions: after three weeks
Experimental: as §3

Avena fatua [13] = experiment: Pre-emergence test; format: in vivo; conditions: after three weeks
Experimental: as §3

Lolium = experiment: Pre-emergence test; format: in vivo; conditions: after three weeks
Experimental: as §3

Alopecurus [14] = experiment: Pre-emergence test; format: in vivo; conditions: 125 g ai/ha, after three weeks
Experimental: as §3

Chenopodium = experiment: Post-emergence test; format: in vivo; conditions: 250 g ai/ha, after three weeks
Experimental: as §2

oilseed rape [15] = experiment: Post-emergence test; format: in vivo; conditions: 250 g ai/ha, after three weeks
Experimental: as §2

Meloidogyne incognita = experiment: Meloidogyne test; format: in vivo; conditions: Meloidogyne incognita egg/larvae on lettuce in sand
Experimental: [table] To produce a suitable preparation of active compound, 1 part by weight of active compound is mixed with the stated amounts of solvent and emulsifier, and the concentrate is diluted with water to the desired concentration. Containers are filled with sand, solution of active compound, Meloidogyne incognita egg/larvae suspension and lettuce seeds. The lettuce seeds germinate and the plants develop. On the roots, galls are formed. After the desired period of time, the nematicidal action in % is determined using the formation of galls as a measure. 100% means that no galls have been found; 0% means that the number of galls on the treated plants corresponds to that on the untreated control.

Stellaria = experiment: Post-emergence test; format: in vivo; conditions: 250 g ai/ha, after three weeks
Experimental: as §2

rice = experiment: Post-emergence test; format: in vivo; conditions: 250 g ai/ha, after three weeks
Experimental: as §2

Sinapis = experiment: Post-emergence test; format: in vivo; conditions: 250 g ai/ha, after three weeks
Experimental: as §2

Abutilon = experiment: Post-emergence test; format: in vivo; conditions: 250 g ai/ha, after three weeks
Experimental: as §2

Bromus = experiment: Pre-emergence test; format: in vivo; conditions: 250 g ai/ha, after three weeks
Experimental: as §3

Soya bean = experiment: Post-emergence test; format: in vivo; conditions: 250 g ai/ha, after three weeks
Experimental: as §2

## Cc1sc(-c2ccc(Cl)cc2)nc1C1=C(O)C2(CCOCC2)NC1=O [Example I-1-A-a-5]
[1]
  effect on spider mites: good activity
[2]
  kill of caterpillars: good activity
Amaranthus
  % damage Amaranthus: 90%
Echinochloa; 250 g ai/ha
  % damage Echinochloa: 100%
Alopecurus [3]; 250 g ai/ha
  % damage Alopecurus: 80%
[4]
  kill of aphids: good activity
[5]
  kill of beetle larvae: good activity

## Cc1sc(-c2ccc(Cl)cc2)nc1C1=C(O)C2(CCCOC2)NC1=O (stereo not shown) [Example I-1-A-a-6]
[1]
  effect on spider mites: good activity
[2]
  kill of caterpillars: good activity
Sugar beet [6]; 125 g ai/ha
  % damage sugar beet: 0%
Digitaria; 125 g ai/ha
  % damage Digitaria: 95%
Echinochloa; 125 g ai/ha
  % damage Echinochloa: 90%
Avena fatua [7]; 125 g ai/ha
  % damage Avena fatua: 90%
Alopecurus [3]; 125 g ai/ha
  % damage Alopecurus: 90%
[4]
  kill of aphids: good activity
[5]
  kill of beetle larvae: good activity

## Cc1sc(-c2ccc(Cl)cc2)nc1C1=C(O)C(C)(C)NC1=O [Example I-1-A-a-2]
[2]
  kill of caterpillars: good activity
Amaranthus
  % damage Amaranthus: 90%
Setaria [8]
  % damage Setaria: 95%
Echinochloa; 250 g ai/ha
  % damage Echinochloa: 90%
Alopecurus [3]; 250 g ai/ha
  % damage Alopecurus: 70%
[5]
  kill of beetle larvae: good activity

## CCOC(=O)OC1=C(c2nc(-c3ccc(Cl)cc3)sc2C)C(=O)NC12CCC(OC)CC2 (stereo not shown) [Example I-1-A-c-1]
[2]
  kill of caterpillars: good activity
Setaria [8]
  % damage Setaria: 90%
Echinochloa; 250 g ai/ha
  % damage Echinochloa: 95%
Avena fatua [7]; 250 g ai/ha
  % damage Avena fatua: 95%
Alopecurus [3]; 250 g ai/ha
  % damage Alopecurus: 80%
[5]
  kill of beetle larvae: good activity

## CCOC(=O)C(C)(C)OC(=O)Cc1nc(-c2ccc(Cl)cc2)sc1C [III-A-2]
[9]
  logP (pH2): 4.53

## Cc1oc(-c2ccccc2)nc1C1=C(O)C(C)(C)OC1=O [Example I-2-B-a-2]
[9]
  logP (pH2): 3.43

## COC1CCC2(CC1)OC(=O)C(c1nc(-c3ccc(Cl)cc3)sc1C)=C2O (stereo not shown) [Example I-2-A-a-1]
[2]
  kill of caterpillars: good activity
Sugar beet [10]; 125 g ai/ha
  % damage sugar beet: 0%
Matricaria
  % damage Matricaria: 100%
Setaria [11]; 125 g ai/ha
  % damage Setaria: 100%
Oilseed rape [12]; 125 g ai/ha
  % damage oilseed rape: 0%
Avena fatua [13]; 125 g ai/ha
  % damage Avena fatua: 100%
Lolium; 125 g ai/ha
  % damage Lolium: 100%
Alopecurus [14]
  % damage Alopecurus: 90%
Amaranthus
  % damage Amaranthus: 70%
Chenopodium
  % damage Chenopodium: 70%
Setaria [8]
  % damage Setaria: 100%
Echinochloa; 250 g ai/ha
  % damage Echinochloa: 100%
Oilseed rape [15]
  % damage oilseed rape: 20%
Avena fatua [7]; 250 g ai/ha
  % damage Avena fatua: 95%
Alopecurus [3]; 250 g ai/ha
  % damage Alopecurus: 80%
Meloidogyne incognita
  nematicidal action (formation of galls): good activity
[4]
  kill of aphids: good activity
[5]
  kill of beetle larvae: good activity

## CCOC(=O)C1(OC(=O)Cc2nc(-c3ccc(Cl)cc3)sc2C)CCC(OC)CC1 (stereo not shown) [III-A-1]
[9]; acidic, HPLC, acetonitrile
  chromatographic logP: 4.54

## COC1CCC2(CC1)NC(=O)C(c1nc(-c3ccc(C)cc3)sc1C)=C2O (single isomer, unassigned) [Example I-1-A-a-8]
[4]
  kill of aphids: good activity
[5]
  kill of beetle larvae: good activity

## COC1CCC2(CC1)NC(=O)C(c1nc(-c3ccc(Cl)cc3)sc1C)=C2O (single isomer, unassigned) [Example I-1-A-a-3]
Stellaria
  % damage Stellaria: 90%
Digitaria; 250 g ai/ha
  % damage Digitaria: 100%
Echinochloa; 250 g ai/ha
  % damage Echinochloa: 100%
Avena fatua [7]; 250 g ai/ha
  % damage Avena fatua: 100%
rice
  % damage rice: 10%
[5]
  kill of beetle larvae: good activity

## Cc1sc(-c2ccc(Cl)cc2)nc1C1=C(O)C2(CCC(C)CC2)NC1=O (stereo not shown) [Example I-1-A-a-1]
[2]
  kill of caterpillars: good activity
Amaranthus
  % damage Amaranthus: 70%
Echinochloa; 250 g ai/ha
  % damage Echinochloa: 95%
Avena fatua [7]; 250 g ai/ha
  % damage Avena fatua: 80%
Sinapis
  % damage Sinapis: 80%
Alopecurus [3]; 250 g ai/ha
  % damage Alopecurus: 80%
[5]
  kill of beetle larvae: good activity

## CCOC1CCC2(CC1)NC(=O)C(c1nc(-c3ccc(Cl)cc3)sc1C)=C2O (single isomer, unassigned) [Example I-1-A-a-4]
[1]
  effect on spider mites: good activity
[2]
  kill of caterpillars: good activity
Amaranthus
  % damage Amaranthus: 95%
Abutilon
  % damage Abutilon: 80%
Setaria [8]
  % damage Setaria: 100%
Echinochloa; 250 g ai/ha
  % damage Echinochloa: 100%
Avena fatua [7]; 250 g ai/ha
  % damage Avena fatua: 100%
Alopecurus [3]; 250 g ai/ha
  % damage Alopecurus: 95%
[5]
  kill of beetle larvae: good activity

## COC1CCC2(CC1)NC(=O)C(c1nc(-c3ccc(Cl)cc3)sc1C)=C2OC(=O)C(C)C (stereo not shown) [Example I-1-A-b-1]
Amaranthus
  % damage Amaranthus: 80%
Abutilon
  % damage Abutilon: 80%
Setaria [8]
  % damage Setaria: 100%
Echinochloa; 250 g ai/ha
  % damage Echinochloa: 100%
Avena fatua [7]; 250 g ai/ha
  % damage Avena fatua: 100%
Alopecurus [3]; 250 g ai/ha
  % damage Alopecurus: 95%

## Cc1sc(-c2ccc(Cl)cc2)nc1C1=C(O)C(C)(C)OC1=O [Example I-2-A-a-2]
[1]
  effect on spider mites: good activity
Sugar beet [10]; 250 g ai/ha
  % damage sugar beet: 0%
Setaria [11]; 250 g ai/ha
  % damage Setaria: 100%
Oilseed rape [12]; 250 g ai/ha
  % damage oilseed rape: 0%
Avena fatua [13]; 250 g ai/ha
  % damage Avena fatua: 90%
Bromus
  % damage Bromus: 90%
Lolium; 250 g ai/ha
  % damage Lolium: 100%
Sugar beet [6]; 250 g ai/ha
  % damage sugar beet: 0%
Soya bean
  % damage Soya bean: 0%
Digitaria; 250 g ai/ha
  % damage Digitaria: 90%
Setaria [8]
  % damage Setaria: 95%
Echinochloa; 250 g ai/ha
  % damage Echinochloa: 100%
Avena fatua [7]; 250 g ai/ha
  % damage Avena fatua: 90%
Meloidogyne incognita
  nematicidal action (formation of galls): good activity
[5]
  kill of beetle larvae: good activity
